Assay results: US10183943B2, “Heterocyclic compounds and their use in preventing or treating bacterial infections” (MUTABILIS, priority 2015, dated 2019)
Where two headings read alike, the source gives them in different places.

Key:
[1] = biological target: AmpC P. aeruginosa (Pseudomonas aeruginosa, UniProt P24735); test: β-lactamase inhibitory activity, determination of IC50 (nitrocefin hydrolysis)
[2] = biological target: T1, CTX-M-15 (Escherichia coli, UniProt Q9EXV5); test: as above; format: biochemical
T1 construct: made in house; host or cells: E. coli

[3] = biological target: T2, TEM-1 (Escherichia coli, UniProt P62593); test: as above; format: biochemical
T2 construct: made in house; host or cells: E. coli

[4] = biological target: T3, OXA-1 (Escherichia coli, UniProt P13661); test: as above; format: biochemical
T3 construct: made in house; host or cells: E. coli

[5] = biological target: T4, OXA-48 (Klebsiella pneumoniae, UniProt Q6XEC0); test: as above; format: biochemical
T4 construct: made in house; host or cells: E. coli

[6] = biological target: T5, OXA-15 (Pseudomonas aeruginosa, UniProt Q51574); test: biochemical
T5 construct: made in house; host or cells: E. coli

[7] = biological target: T6, SHV-1 (Klebsiella pneumoniae, UniProt P0AD64); test: β-lactamase inhibitory activity, determination of IC50 (nitrocefin hydrolysis); format: biochemical
T6 construct: made in house; host or cells: E. coli

[8] = test system: E. cloacae UFR70 (TEM-1, CTX-M-15, CMY-2, OXA-1, Porin loss); test: MIC of compounds alone, broth microdilution; format: cell-based; conditions: Enterobacter cloacae, read-out: MIC compounds of the invention alone
How it was run: (§1)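 Read-out: lowest compound concentration with no growth by visual inspection. CLSI M7-A7 broth microdilution, cation-adjusted Mueller-Hinton broth, inoculum 5×10^5 cfu/mL from log-phase culture, 16-20 h, 35° C, ambient air; compound tested without β-lactam.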

[9] = test system: E. coli UFR74 (SHV-1, DHA-1); test: MIC of compounds alone, broth microdilution; format: cell-based; conditions: Escherichia coli, read-out: MIC compounds of the invention alone
How it was run: as §1

[10] = test system: K. pneumoniae 160143 (TEM-1, SHV-1, CTX-M-15, KPC-2, OXA-1); test: MIC of compounds alone, broth microdilution; format: cell-based; conditions: Klebsiella pneumoniae, read-out: MIC compounds of the invention alone
How it was run: as §1

[11] = test system: E. cloacae 260508 (TEM-1, CTX-M-15); test: MIC of compounds alone, broth microdilution; format: cell-based; conditions: Enterobacter cloacae, read-out: MIC compounds of the invention alone
How it was run: as §1

[12] = test system: E. cloacae UFR51 (SHV-12, IMP-8); test: MIC of compounds alone, broth microdilution; format: cell-based; conditions: Enterobacter cloacae, read-out: MIC compounds of the invention alone
How it was run: as §1

[13] = test system: E. coli 190317 (TEM-1, SHV-12, CTX-M-15, OXA-1); test: MIC of compounds alone, broth microdilution; format: cell-based; conditions: Escherichia coli, read-out: MIC compounds of the invention alone
How it was run: as §1

[14] = test system: K. pneumoniae 200047 (TEM-1, SHV-32, CTX-M-15, OXA-1); test: MIC of compounds alone, broth microdilution; format: cell-based; conditions: Klebsiella pneumoniae, read-out: MIC compounds of the invention alone
How it was run: as §1

[15] = test system: E. coli UFR32 (TEM-1, VEB-1, OXA-10); test: MIC of compounds alone, broth microdilution; format: cell-based; conditions: Escherichia coli, read-out: MIC compounds of the invention alone
How it was run: as §1

[16] = test system: E. cloacae P99 (AmpC); test: MIC of compounds alone, broth microdilution; format: cell-based; conditions: Enterobacter cloacae, read-out: MIC compounds of the invention alone
How it was run: as §1

[17] = test system: K. pneumoniae UFR39 (CTX-M-15, NDM-1); test: MIC of compounds alone, broth microdilution; format: cell-based; conditions: Klebsiella pneumoniae, read-out: MIC compounds of the invention alone
How it was run: as §1

[18] = test system: K. pneumoniae BAA-1898 (TEM-1, SHV-11, SHV-12, KPC-2); test: MIC of compounds alone, broth microdilution; format: cell-based; conditions: Klebsiella pneumoniae
How it was run: as §1

[19] = test system: K. pneumoniae 6299 (TEM-1, SHV-11, OXA-163); test: MIC of compounds alone, broth microdilution; format: cell-based; conditions: Klebsiella pneumoniae, read-out: MIC compounds of the invention alone
How it was run: as §1

[20] = test system: K. pneumoniae UFR68 (TEM-1, SHV-11, CTX-M-15, KPC-3); test: MIC of compounds alone, broth microdilution; format: cell-based; conditions: Klebsiella pneumoniae, read-out: MIC compounds of the invention alone
How it was run: as §1

[21] = test system: E. cloacae UFR85 (TEM-1, CTX-M-15, AmpC); test: MIC of compounds alone, broth microdilution; format: cell-based; conditions: Enterobacter cloacae, read-out: MIC compounds of the invention alone
How it was run: as §1

[22] = test system: K. pneumoniae UFR77 (CMY-2); test: MIC of compounds alone, broth microdilution; format: cell-based; conditions: Klebsiella pneumoniae, read-out: MIC compounds of the invention alone
How it was run: as §1

[23] = test system: E. coli UFR18 (CTX-M-15, OXA-204); test: MIC of compounds alone, broth microdilution; format: cell-based; conditions: Escherichia coli, read-out: MIC compounds of the invention alone
How it was run: as §1

[24] = test system: E. coli UFR61O (TEM-1, KPC-2); test: MIC of compounds alone, broth microdilution; format: cell-based; conditions: Escherichia coli, read-out: MIC compounds of the invention alone
How it was run: as §1

[25] = test system: K. pneumoniae UFR24 (TEM-1, SHV-2, SHV-11, OXA-1, OXA-48, OXA-47); test: MIC of compounds alone, broth microdilution; format: cell-based; conditions: Klebsiella pneumoniae, read-out: MIC compounds of the invention alone
How it was run: as §1

[26] = test system: E. coli RGN238 (OXA-1); test: MIC of compounds alone, broth microdilution; format: cell-based; conditions: Escherichia coli, read-out: MIC compounds of the invention alone
How it was run: as §1

[27] = test system: P. aeruginosa CIP107051 (TEM-24); test: MIC of compounds alone, broth microdilution; format: cell-based; conditions: Pseudomonas aeruginosa
How it was run: as §1

[28] = test system: K. oxytoca UFR21 (TEM-1, CTX-M-15, OXA-48); test: MIC of compounds alone, broth microdilution; format: cell-based; conditions: Klebsiella oxytoca, read-out: MIC compounds of the invention alone
How it was run: as §1

[29] = test system: E. coli UFR41 (TEM-1, CTX-M-15, CMY-2, OXA-1, NDM-4); test: MIC of compounds alone, broth microdilution; format: cell-based; conditions: Escherichia coli, read-out: MIC compounds of the invention alone
How it was run: as §1

[30] = test system: E. coli 131119 (TEM-1, OXA-48); test: MIC of compounds alone, broth microdilution; format: cell-based; conditions: Escherichia coli, read-out: MIC compounds of the invention alone
How it was run: as §1

[31] = biological target: AmpC (P99) (Enterobacter cloacae, UniProt P05364); test: β-lactamase inhibitory activity, determination of IC50 (nitrocefin hydrolysis)
[32] = biological target: T7, KPC-2 (Klebsiella pneumoniae, UniProt Q9F663); test: as above; format: biochemical
T7 construct: made in house; host or cells: E. coli

[33] = biological target: T8, OXA-11 (Pseudomonas aeruginosa, UniProt Q06778); test: as above; format: biochemical
T8 construct: made in house; host or cells: E. coli

[34] = test system: E. cloacae UFR51 (SHV-12, IMP-8); test: MIC of ceftazidime (CAZ) in combination with compounds at 4 μg/mL, broth microdilution; format: cell-based; conditions: strain UFR51; MIC of CAZ with compound fixed at 4 μg/mL
Description: Method 2: MIC of Compounds and Synergy with Ceftazidime Against Bacterial Isolates (Table 2 and 3)
Compounds of the present invention were assessed against genotyped bacterial strains alone or in combination with the β-lactam ceftazidime (CAZ). In the assays, MICs of said compounds, or of ceftazidime at fixed concentrations of said compounds were determined by the broth microdilution method according to the Clinical Laboratory Standards Institute (CLSI-M7-A7). Briefly, compounds alone according to the invention were prepared in DMSO and spotted (2 μL each) on sterile polystyrene plates (Corning, 3788). Compounds and ceftazidime dilutions were prepared in DMSO and spotted (1 μL each) on sterile polystyrene plates (Corning, 3788). Log phase bacterial suspensions were adjusted to a final density of 5×10^5 cfu/mL in cation-adjusted Mueller-Hinton broth (Becton-Dickinson) and added to each well (98 μL). Microplates were incubated for 16-20 h at 35° C. in ambient air. The MIC of the compounds was defined as the lowest concentration of said compounds that prevented bacterial growth as read by visual inspection. The MIC of ceftazidime at each compound concentration was defined as the lowest concentration of ceftazidime that prevented bacterial growth as read by visual inspection.

T3 sequence (P13661 26-276): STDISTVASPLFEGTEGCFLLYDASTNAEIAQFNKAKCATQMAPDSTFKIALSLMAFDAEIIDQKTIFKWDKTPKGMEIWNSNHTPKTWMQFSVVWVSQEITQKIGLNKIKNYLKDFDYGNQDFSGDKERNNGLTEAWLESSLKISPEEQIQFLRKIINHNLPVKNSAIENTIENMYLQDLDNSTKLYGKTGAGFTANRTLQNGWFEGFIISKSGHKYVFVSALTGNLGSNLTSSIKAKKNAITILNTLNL
T6 sequence (P0AD64 22-286): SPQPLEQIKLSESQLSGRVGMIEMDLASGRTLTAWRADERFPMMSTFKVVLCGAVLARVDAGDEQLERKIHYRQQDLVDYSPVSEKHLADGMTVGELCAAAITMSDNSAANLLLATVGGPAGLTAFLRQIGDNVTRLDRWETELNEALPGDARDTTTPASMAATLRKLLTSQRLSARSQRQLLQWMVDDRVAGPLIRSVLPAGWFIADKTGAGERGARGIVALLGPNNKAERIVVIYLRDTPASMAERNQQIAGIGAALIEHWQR
T2 sequence (P62593 24-286 limits assumed): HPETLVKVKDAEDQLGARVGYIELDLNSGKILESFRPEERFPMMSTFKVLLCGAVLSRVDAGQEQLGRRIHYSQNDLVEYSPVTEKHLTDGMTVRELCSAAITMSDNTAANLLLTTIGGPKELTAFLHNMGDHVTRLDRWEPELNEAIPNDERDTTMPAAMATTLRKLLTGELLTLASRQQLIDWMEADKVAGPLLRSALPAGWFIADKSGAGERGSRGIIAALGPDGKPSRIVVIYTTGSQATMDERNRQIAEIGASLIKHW
T4 sequence (Q6XEC0 23-265 limits assumed): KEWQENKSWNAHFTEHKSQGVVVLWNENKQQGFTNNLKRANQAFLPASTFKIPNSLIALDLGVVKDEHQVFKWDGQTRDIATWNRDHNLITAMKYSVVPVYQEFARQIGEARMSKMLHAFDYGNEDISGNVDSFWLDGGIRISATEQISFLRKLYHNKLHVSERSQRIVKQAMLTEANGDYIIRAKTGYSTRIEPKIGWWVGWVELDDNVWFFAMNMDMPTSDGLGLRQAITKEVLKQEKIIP
T5 sequence (Q51574 22-275): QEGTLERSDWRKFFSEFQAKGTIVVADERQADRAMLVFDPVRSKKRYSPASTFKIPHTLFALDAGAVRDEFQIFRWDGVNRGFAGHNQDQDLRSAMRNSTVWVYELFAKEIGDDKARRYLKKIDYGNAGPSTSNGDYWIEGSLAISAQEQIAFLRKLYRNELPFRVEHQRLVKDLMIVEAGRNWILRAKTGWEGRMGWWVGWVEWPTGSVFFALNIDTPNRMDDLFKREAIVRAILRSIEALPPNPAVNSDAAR
T1 sequence (Q9EXV5 entry or part of it): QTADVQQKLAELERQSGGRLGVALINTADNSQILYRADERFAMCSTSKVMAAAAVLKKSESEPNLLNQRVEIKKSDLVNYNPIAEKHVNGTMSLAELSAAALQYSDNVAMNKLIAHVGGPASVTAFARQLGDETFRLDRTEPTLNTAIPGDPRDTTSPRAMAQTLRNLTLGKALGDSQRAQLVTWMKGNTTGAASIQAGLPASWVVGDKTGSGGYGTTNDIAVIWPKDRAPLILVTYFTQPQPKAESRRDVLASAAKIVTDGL
T8 sequence (Q06778 21-266): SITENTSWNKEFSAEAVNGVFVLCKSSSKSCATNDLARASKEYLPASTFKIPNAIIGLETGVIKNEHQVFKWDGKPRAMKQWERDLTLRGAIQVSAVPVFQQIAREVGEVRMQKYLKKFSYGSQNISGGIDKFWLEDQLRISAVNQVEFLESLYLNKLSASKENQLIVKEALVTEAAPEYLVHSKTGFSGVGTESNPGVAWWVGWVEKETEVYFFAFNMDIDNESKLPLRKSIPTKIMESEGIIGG
Chain of AmpC P. aeruginosa (P24735 27-397): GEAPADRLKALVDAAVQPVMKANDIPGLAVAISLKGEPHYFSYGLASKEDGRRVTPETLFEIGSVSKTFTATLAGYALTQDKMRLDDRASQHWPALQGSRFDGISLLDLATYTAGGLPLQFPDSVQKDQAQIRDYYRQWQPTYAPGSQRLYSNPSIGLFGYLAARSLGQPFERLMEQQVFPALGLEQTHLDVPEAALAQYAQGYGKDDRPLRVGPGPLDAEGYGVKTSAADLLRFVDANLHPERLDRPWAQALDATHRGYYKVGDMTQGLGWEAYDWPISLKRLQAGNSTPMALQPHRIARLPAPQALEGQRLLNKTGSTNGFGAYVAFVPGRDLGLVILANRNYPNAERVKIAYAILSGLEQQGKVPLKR
Chain of AmpC (P99) (P05364 21-381): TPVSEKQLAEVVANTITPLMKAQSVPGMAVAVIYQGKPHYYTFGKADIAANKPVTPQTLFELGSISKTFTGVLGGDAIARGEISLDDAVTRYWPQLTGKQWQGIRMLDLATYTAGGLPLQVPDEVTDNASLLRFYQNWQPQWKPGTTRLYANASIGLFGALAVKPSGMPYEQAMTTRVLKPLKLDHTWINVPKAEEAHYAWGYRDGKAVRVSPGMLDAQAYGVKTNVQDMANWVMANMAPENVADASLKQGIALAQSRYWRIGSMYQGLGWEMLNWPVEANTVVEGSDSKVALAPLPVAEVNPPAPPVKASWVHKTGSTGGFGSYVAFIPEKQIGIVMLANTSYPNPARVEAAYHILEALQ
T7 sequence (Q9F663 25-293 limits assumed): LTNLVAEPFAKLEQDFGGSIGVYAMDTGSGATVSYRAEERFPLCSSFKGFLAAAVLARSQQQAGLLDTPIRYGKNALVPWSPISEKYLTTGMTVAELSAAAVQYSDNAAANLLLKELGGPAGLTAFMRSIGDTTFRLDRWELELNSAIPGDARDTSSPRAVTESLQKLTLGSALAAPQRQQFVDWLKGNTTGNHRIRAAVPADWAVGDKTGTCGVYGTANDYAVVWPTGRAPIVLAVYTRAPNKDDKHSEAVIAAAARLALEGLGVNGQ

O=C1N2CC(c3ncco3)=C[C@H](C2)N1OC(F)(F)C(=O)O (racemic) [Example 37]
IC50 [1]: 240 nM | IC50 [2]: 0.57 nM | IC50 [3]: 1.6 nM | IC50 [4]: 7400 nM | IC50 [5]: 1.8 nM | IC50 [6]: 59 nM | IC50 [7]: 13 nM | MIC [8]: 2 µg/mL | MIC [9]: 4 µg/mL | MIC [10]: 4 µg/mL | MIC [11]: 4 µg/mL | MIC [12]: 4 µg/mL | MIC [13]: 2 µg/mL | MIC [14]: 2 µg/mL | MIC [15]: 2 µg/mL | MIC [16]: 8 µg/mL | MIC [17]: 8 µg/mL | MIC ([18]; BAA1898, read-out: MIC compounds of the invention alone): 4 µg/mL | MIC [19]: 8 µg/mL | MIC [20]: 4 µg/mL | MIC [21]: 2 µg/mL | MIC [22]: 4 µg/mL | MIC [23]: 2 µg/mL | MIC [24]: 8 µg/mL | MIC [25]: 4 µg/mL | MIC [26]: 2 µg/mL | MIC ([27]; CIP107051, read-out: MIC compounds of the invention alone): > 128 µg/mL | MIC [28]: 4 µg/mL | MIC [29]: 16 µg/mL | MIC [30]: 2 µg/mL | IC50 [31]: 630 nM | IC50 [32]: 53 nM | IC50 [33]: 210 nM

O=C1N2CC(c3ccncc3)=CC(C2)N1OS(=O)(=O)[O-].[Na+] (stereo not drawn) [Example 33, Sodium [3-(4-pyridyl)-7-oxo-1,6-diazabicyclo[3.2.1]oct-3-en-6-yl]sulfate]
IC50 [1]: 90 nM | IC50 ([2]; class (A), nitrocefin 200 μM, 30 min pre-incubation, read-out: IC50 β-lactamase CTX-M-15): 0.79 nM | MIC combination of CAZ and compounds of the invention at 4 μg/mL [34]: >128 µg/mL | IC50 [3]: 1 nM | IC50 ([4]; class (D), nitrocefin 200 μM, 30 min pre-incubation, read-out: IC50 β-lactamase OXA-1): 690 nM | IC50 ([5]; class (D), nitrocefin 200 μM, 30 min pre-incubation, read-out: IC50 β-lactamase OXA-48): 12 nM | IC50 [6]: 110 nM | IC50 [7]: 2.3 nM | MIC [8]: 4 µg/mL | MIC ([9]; strain UFR74 (E. coli)): 8 µg/mL | MIC [10]: 8 µg/mL | MIC ([12]; strain UFR51 (E. cloacae)): 16 µg/mL | MIC [13]: 4 µg/mL | MIC [14]: 8 µg/mL | MIC ([15]; strain UFR32 (E. coli)): 8 µg/mL | MIC ([16]; strain P99 (E. cloacae)): 8 µg/mL | MIC ([17]; strain UFR39 (K. pneumoniae)): 16 µg/mL | MIC ([18]; BAA1898, strain BAA-1898 (K. pneumoniae), read-out: MIC compounds of the invention alone): 8 µg/mL | MIC ([19]; strain 6299 (K. pneumoniae)): 16 µg/mL | MIC ([22]; strain UFR77 (K. pneumoniae)): 16 µg/mL | MIC ([23]; strain UFR18 (E. coli)): 4 µg/mL | MIC ([24]; strain UFR61O (E. coli)): 16 µg/mL | MIC ([25]; strain UFR24 (K. pneumoniae)): 32 µg/mL | MIC ([26]; strain RGN238 (E. coli)): 4 µg/mL | MIC ([27]; strain CIP107051 (P. aeruginosa), read-out: MIC compounds of the invention alone): > 32 µg/mL | MIC [28]: 32 µg/mL | MIC ([30]; strain 131119 (E. coli)): 4 µg/mL | IC50 [31]: 31 nM | IC50 ([32]; class (A), nitrocefin 200 μM, 30 min pre-incubation, read-out: IC50 β-lactamase KPC-2): 9 nM | IC50 [33]: 210 nM
